In the SangsterLogP compilation:

Structure (SMILES)	logP
O=c1[nH]c2ccccc2c(O)c1/N=N/c1ccccc1	4.2
O=C1c2ccccc2C(=O)c2c(O)ccc(O)c21	2.34
CNc1ccc(NC)c2c1C(=O)c1ccccc1C2=O	2.7
CNc1cccc2c1C(=O)c1ccccc1C2=O	2.87
Nc1c(Oc2ccccc2)cc(O)c2c1C(=O)c1ccccc1C2=O	4.68
O=C1c2ccccc2C(=O)c2c1ccc(O)c2O	2.34
O=C1c2ccc(O)c(O)c2C(=O)c2c(O)ccc(O)c21	2.01
CN(C)c1ccc(/N=N/c2ccccc2)cc1	4.05
Oc1ccc(/N=N/c2ccccc2)cc1	3.18
O=C1C(c2[nH]c3ccccc3c2O)=Nc2ccccc21	2.63
CNc1ccc(O)c2c1C(=O)c1c(O)ccc(NC)c1C2=O	1.61
O=C1c2ccccc2C(=O)C1c1nc2ccccc2cc1O	2.49
Cc1cc(Cl)cc2c1C(=O)/C(=C1\Sc3cc(Cl)cc(C)c3C1=O)S2	6.02
Clc1ccc(/N=N/c2ccccc2)cc1	4.56
COc1cc(N)c2c(c1N)C(=O)c1ccccc1C2=O	1.29
Cc1ccc2c(c1N)C(=O)c1ccccc1C2=O	2.8
Nc1ccc(N=Nc2ccccc2)cc1	2.62
Nc1ccc(O)c2c1C(=O)c1ccccc1C2=O	1.8
O=C1c2ccccc2C(=O)c2c(O)c(O)cc(O)c21	1.84
O=C1C(c2[nH]c3c(Br)cc(Br)cc3c2O)=Nc2c(Br)cc(Br)cc21	6.66
c1ccc2oc(-c3ccc(-c4nc5ccccc5o4)s3)nc2c1	5.97

Second part, the compound after the results:

logP	Structure (SMILES)
2.11	O=C1c2ccccc2C(=O)c2c(NCCO)cccc21
3.41	Cc1cc(N(CCO)CCO)ccc1/N=N/c1ccc([N+](=O)[O-])cc1Cl
2.85	CC(=O)Nc1ccc(/N=N/c2cc(C)ccc2O)cc1
4.12	Cc1cc(N(CCO)CCO)ccc1/N=N/c1c(Cl)cc([N+](=O)[O-])cc1Cl
1.17	O=C1c2ccccc2C(=O)c2c(NCCO)ccc(NCCO)c21
3.37	CCN(CCO)c1ccc(/N=N/c2ccc([N+](=O)[O-])cc2)cc1
2.27	COc1cc([N+](=O)[O-])ccc1/N=N/c1ccc(N(CCO)CCO)cc1
3.79	CN(C)c1ccc(/N=N/c2ccc([N+](=O)[O-])cc2)cc1
1.94	CNc1ccc(NCCO)c2c1C(=O)c1ccccc1C2=O
2.31	OCCN(CCO)c1ccc(/N=N/c2ccccc2)cc1
2.7	Cc1cc(N(CCO)CCO)ccc1/N=N/c1ccc([N+](=O)[O-])cc1
3.88	O=[N+]([O-])c1ccc(Nc2ccc(O)cc2)c([N+](=O)[O-])c1
2.93	O=[N+]([O-])c1ccc(/N=N/c2ccc(N(CCO)CCO)cc2Cl)cc1
3.15	Cc1cc(N(CCO)CCO)ccc1/N=N/c1c(Cl)cc([N+](=O)[O-])cc1[N+](=O)[O-]
2.05	O=[N+]([O-])c1ccc(/N=N/c2ccc(N(CCO)CCO)cc2)cc1
2.44	Cc1cc(N(CCO)CCO)ccc1/N=N/c1ccc([N+](=O)[O-])cc1[N+](=O)[O-]
3.59	O=[N+]([O-])c1ccc(/N=N/c2ccccc2)cc1
4.08	CCN(CCO)c1ccc(/N=N/c2ccc([N+](=O)[O-])cc2Cl)cc1
3.32	Nc1ccc(Nc2ccc([N+](=O)[O-])cc2[N+](=O)[O-])cc1
4.34	CN(CCO)c1ccc(/N=N/c2c(Cl)cc([N+](=O)[O-])cc2Cl)cc1
2.37	Nc1ccc(/N=N/c2ccc([N+](=O)[O-])cc2)cc1
4.55	O=[N+]([O-])c1ccc(Nc2ccccc2)c([N+](=O)[O-])c1
1.79	O=[N+]([O-])c1ccc(/N=N/c2ccc(N(CCO)CCO)cc2)c([N+](=O)[O-])c1
2.7	Cc1cc(N(CCO)CCO)ccc1/N=N/c1ccccc1
3.56	CCOc1cc(/N=N/c2c(Br)cc([N+](=O)[O-])cc2[N+](=O)[O-])c(NC(C)=O)cc1N(CCOC(C)=O)CCOC(C)=O
3.11	CCN(CCO)c1ccc(/N=N/c2ccc([N+](=O)[O-])cc2[N+](=O)[O-])cc1
2.97	Cc1cc(N(CCO)CCC#N)ccc1/N=N/c1ccc([N+](=O)[O-])cc1
5.07	O=[N+]([O-])c1ccc(/N=N/c2ccc(Nc3ccccc3)cc2)cc1
4.69	CCN(CC)c1ccc(/N=N/c2ccc([N+](=O)[O-])cc2)cc1
